Literature values in US6387949B1, “Substituted urea compounds useful in pain management” (AstraZeneca Canada Inc., priority 1998, dated 2002).

Tests used:
[1] = background statement
δ receptor = δ receptor (Homo sapiens, UniProt P41143); conditions: background statement
Chain of δ receptor (P41143 whole entry): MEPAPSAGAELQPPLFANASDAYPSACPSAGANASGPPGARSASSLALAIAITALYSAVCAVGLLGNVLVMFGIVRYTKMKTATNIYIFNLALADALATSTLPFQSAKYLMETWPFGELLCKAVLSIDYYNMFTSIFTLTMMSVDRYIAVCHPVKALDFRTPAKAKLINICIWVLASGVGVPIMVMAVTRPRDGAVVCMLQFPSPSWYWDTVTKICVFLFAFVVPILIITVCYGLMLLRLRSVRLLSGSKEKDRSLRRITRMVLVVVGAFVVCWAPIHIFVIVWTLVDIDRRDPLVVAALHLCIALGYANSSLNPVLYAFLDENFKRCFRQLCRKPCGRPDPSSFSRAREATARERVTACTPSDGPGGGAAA

SMILES: Oc1ccc2c3c1O[C@H]1c4[nH]c5ccccc5c4C[C@@]4(O)[C@@H](C2)N(CC2CC2)CC[C@]314 [naltrindole]
- analgesic activity [1]: no analgesic activity
- selectivity for the δ receptor vs. μ receptor binding (δ receptor): < 10 fold
